Measurements as given in patent US6770673B1, “Therapeutic uses of arglabin in combination with other chemotherapy agents” (priority 1997, dated 2004).

Assays:
Pliss lymphosarcoma = experiment: Inhibition of tumor growth in implanted tumors; type: in vivo, rats
Worker's carcinosarcoma = experiment: Inhibition of tumor growth in implanted tumors; type: in vivo, mice and rats
Geren's carcinosarcoma = experiment: Inhibition of tumor growth in implanted tumors; type: in vivo, mice and rats
Sarcoma-45 = experiment: Inhibition of tumor growth in implanted tumors; type: in vivo, rats
M-1 Sarcoma = experiment: Inhibition of tumor growth in implanted tumors; type: in vivo, mice and rats
[1] = tested on: Alveolar Cancer of the liver; experiment: Inhibition of tumor growth in implanted tumors; type: in vivo, mice and rats
[2] = tested on: Sarcoma-45 resistant to 5-fluorouracil; experiment: Inhibition of growth of resistant tumour strains; type: in vivo, rats
[3] = tested on: Pliss Lymphosarcoma resistant to prospidine; experiment: Inhibition of growth of resistant tumour strains; duration of life and metastasis; type: in vivo, rats
Leucemia P-388 = experiment: Implanted leukemia, inhibition / survival; type: in vivo, mice and rats
PC-1 = experiment: Inhibition of tumor growth in implanted tumors; type: in vivo, mice and rats; settings: dose 30 mg/kg
L-1210 = experiment: Implanted leukemia, survival; type: in vivo, mice and rats; settings: dose 30 mg/kg
[4] = tested on: Sarcoma-45 resistant to sarcolysin; experiment: Inhibition of growth of resistant tumour strains; type: in vivo, rats; settings: dose 30 mg/kg
[5] = tested on: Pliss Lymphosarcoma resistant to rubidomycin; experiment: Inhibition of growth of resistant tumour strains; type: in vivo, rats; settings: dose 30 mg/kg
immune system = experiment: Indices of patients' immunity, rozette forming and phagocytosis methods (Table X); type: in vivo, human
Procedure: The indices of immune system were determined using rozette forming and phagocytosis methods. […] Eleven indices of cellular and humoral immunity were measured from each patient in order to evaluate immune status. The following indices were determined on 0.05 ml of peripheral blood: absolute and relative amount of T- and B-lymphocytes, amount of non-differentiated “zero” cells, adhesion and phagocyte activity of neutrophils, hemogram, level of serum immunoglobulins. Indices were determined before treatment, on days 2, 5 and 14 of treatment, and after treatment.
Mean values of immunological indices were evaluated with regression analysis. Functional conditions of the immune system were estimated using integral indices such as a mean intensity (correlation) expressed in relative units.

Sarcoma-37 = experiment: Inhibition of tumor growth in implanted tumors; type: in vivo, mice and rats; settings: dose 2 mg/kg

CC1=CCC23OC2(C)CCC2C(C)C(=O)OC2C13 (centres unmarked) [11,13-dihydroarglabin (16), 11,13 dihydroarglabin]
Inhibition of Tumour Growth, % - Pliss lymphosarcoma (Pliss lymphosarcoma; dose 30 mg/kg): 68.0%
Inhibition of Tumour Growth, % - Worker's carcinosarcoma (Worker's carcinosarcoma; dose 30 mg/kg): 46.4%
Inhibition of Tumour Growth, % - Geren's carcinosarcoma (Geren's carcinosarcoma; dose 30 mg/kg): 84.4%
Inhibition of Tumour Growth, % - Sarcoma-45 (Sarcoma-45; dose 30 mg/kg): 64.1%
Inhibition of Tumour Growth, % - M-1 Sarcoma (M-1 Sarcoma; dose 30 mg/kg): 65.5%
Inhibition of Tumour Growth, % - Alveolar Cancer of the liver ([1]; dose 30 mg/kg): 68.7%

C=C1C(=O)OC2C1CCC(C)(O)C1C3OC3C(C)(O)C21 (stereo not drawn) [Anobin (19), 2α,3α-epoxy-4α,10α-dioxy-5,7α(H), 60β(H)-guai-11(13)-en-6,12-olide]
Inhibition of Tumour Growth, % - Pliss lymphosarcoma (Pliss lymphosarcoma; dose 20-30 mg/kg): 60.0%
Inhibition of Tumour Growth, % - Geren's carcinosarcoma (Geren's carcinosarcoma; dose 20-30 mg/kg): 85%
Inhibition of Tumour Strains Growth, % - Resistant Forms - Sarcoma-45 to 5-fluorouracil ([2]; dose 20-30 mg/kg): 13.2%
Inhibition of Tumour Strains Growth, % - Resistant Forms - Pliss Lymphosarcoma to prospidine ([3]; dose 20-30 mg/kg): 95%

C=C1C(=O)O[C@@H]2[C@H]3C(C)=CC[C@@]34O[C@@]4(C)CC[C@@H]12 [Arglabin (1), 1(R), 10(S)-epoxy-5(S), 6(S), 7(S)-guaia-3(4), 11(13)-diene-6,12-olide]
Inhibition of Tumour Growth, % - Pliss lymphosarcoma (Pliss lymphosarcoma; dose 30 mg/kg): 57.6%
Inhibition of Tumour Growth, % - Worker's carcinosarcoma (Worker's carcinosarcoma; dose 30 mg/kg): 41.1%
Inhibition of Tumour Growth, % - Geren's carcinosarcoma (Geren's carcinosarcoma; dose 30 mg/kg): 48.0%
Inhibition of Tumour Growth, % - Sarcoma-45 (Sarcoma-45; dose 30 mg/kg): 23.0%
Inhibition of Tumour Growth, % - M-1 Sarcoma (M-1 Sarcoma; dose 30 mg/kg): 55.6%
Inhibition of Tumour Growth, % - Alveolar Cancer of the liver ([1]; dose 30 mg/kg): 32.1%
Leucemia P-388 PALT - increase in survival (Leucemia P-388; dose 30 mg/kg): +43.0%
Inhibition of Tumour Growth, % - PC-1 (PC-1): 32.1%
L-1210 - increase in survival (L-1210): +34.1%
Inhibition of Tumour Strains Growth, % - Resistant Forms - Sarcoma-45 to sarcolysin [4]: 59.7%
Inhibition of Tumour Strains Growth, % - Resistant Forms - Pliss Lymphosarcoma to rubidomycin [5]: 44.1%
Inhibition of Tumour Strains Growth, % - Resistant Forms - Pliss Lymphosarcoma to prospidine ([3]; dose 30 mg/kg): 31.0%
Adhesion, N/ph (immune system; human, in vivo): 42.40 ± 1.72
Non differentiated lymphocytes, % (immune system; human, in vivo): 26.00 ± 2.21%
T-lymphocytes, % (immune system; human, in vivo): 52.00 ± 1.42%
Eosinophil (immune system; patients, hemogram, after treatment (before treatment 2.72 ± 0.71)): 3.35 ± 1.30
Neutrophils, % (immune system; patients, hemogram, after treatment (before treatment 4.72 ± 0.91)): 5.45 ± 0.79%
Monocytes (immune system; patients, hemogram, after treatment (before treatment 5.28 ± 2.48)): 4.45 ± 0.44
Lymphocytes (immune system; patients, hemogram, after treatment (before treatment 25.52 ± 2.02)): 23.15 ± 1.7
Segmentation nucleus (immune system; patients, hemogram, after treatment (before treatment 61.68 ± 45.0)): 63.05 ± 1.79
B-lymphocytes, absolute (immune system; patients, peripheral blood, after treatment (before treatment 0.29 ± 0.05)): 0.45 ± 0.07
T-lymphocytes, absolute (immune system; patients, peripheral blood, after treatment (before treatment 0.72 ± 0.08)): 1.14 ± 0.17
D-phag, abs (immune system; patients, peripheral blood, after treatment (before treatment 1.69 ± 0.26)): 2.32 ± 0.19
Leukocytes, 10^9/l (immune system; patients, peripheral blood, after treatment (before treatment 5.97 ± 0.60)): 9.14 ± 0.61 10^9/l
T suppressor, % (immune system; patients, peripheral blood, after treatment (before treatment 10.48 ± 1.60)): 10.50 ± 0.95%
B-lymphocytes, % (immune system; patients, peripheral blood, after treatment (before treatment 19.12 ± 1.02)): 18.50 ± 10.0%
T helper cells, % (immune system; patients, peripheral blood, after treatment (before treatment 39.12 ± 1.25)): 45.30 ± 1.26%
D-phag., % (immune system; patients, peripheral blood, after treatment (before treatment 41.36 ± 0.95)): 48.1 ± 0.93%
Immunoglobulins M (immune system; patients, serum, after treatment (before treatment 1.36 ± 0.03)): 1.53 ± 0.03 g/L
Immunoglobulins A (immune system; patients, serum, after treatment (before treatment 1.48 ± 0.02)): 1.97 ± 0.08 g/L
Immunoglobulins G (immune system; patients, serum, after treatment (before treatment 14.33 ± 0.43)): 17.91 ± 0.41 g/L

COc1cc2c(c(OC)c1OC)-c1ccc(OC)c(=O)cc1[C@@H](NC(C)=O)CC2 [Colchicine, colchicine, reference compound]
Inhibition of Tumour Growth, % - Pliss lymphosarcoma (Pliss lymphosarcoma; dose 2 mg/kg): 54.4%
Inhibition of Tumour Growth, % - Worker's carcinosarcoma (Worker's carcinosarcoma; dose 2 mg/kg): 30.1%
Inhibition of Tumour Growth, % - Geren's carcinosarcoma (Geren's carcinosarcoma; dose 2 mg/kg): 32.4%
Inhibition of Tumour Growth, % - Sarcoma-45 (Sarcoma-45; dose 2 mg/kg): 23.4%
Inhibition of Tumour Growth, % - Sarcoma-37 (Sarcoma-37): 36.7%
Inhibition of Tumour Growth, % - M-1 Sarcoma (M-1 Sarcoma; dose 2 mg/kg): 14.9%
Inhibition of Tumour Growth, % - Alveolar Cancer of the liver ([1]; dose 2 mg/kg): 29.1%
Inhibition of Tumour Growth, % - Leucemia P-388 PALT (Leucemia P-388; dose 2 mg/kg): 31.2%

C=C1C(=O)OC2C1CCC1(C)OC13CC(Br)C(C)(Br)C23 (centres unmarked) [Dibromoarglabin (5), 3,4 Dibromoarglabin]
Inhibition of Tumour Growth, % - Pliss lymphosarcoma (Pliss lymphosarcoma; dose 50 mg/kg): 51.0%
Inhibition of Tumour Growth, % - Worker's carcinosarcoma (Worker's carcinosarcoma; dose 50 mg/kg): 17.1%
Inhibition of Tumour Growth, % - Geren's carcinosarcoma (Geren's carcinosarcoma; dose 50 mg/kg): 90.0%
Inhibition of Tumour Growth, % - Sarcoma-45 (Sarcoma-45; dose 50 mg/kg): 74.2%
Inhibition of Tumour Growth, % - Alveolar Cancer of the liver ([1]; dose 50 mg/kg): 69.0%
Inhibition of Tumour Growth, % - Leucemia P-388 PALT (Leucemia P-388; dose 50 mg/kg): 46.9%
Inhibition of Tumour Strains Growth, % - Resistant Forms - Sarcoma-45 to 5-fluorouracil ([2]; dose 50 mg/kg): 46.3%
